# Source: patent publication US20240366571A1, “MODULATORS OF SK4 POTASSIUM CHANNEL AND USES THEREOF” (Ramot at Tel-Aviv University Ltd., priority 2022, published 2024)
# Like-named read-outs stand apart in the source and are kept apart here.
# Key:
# [1] = target: T1, WT SK4 channel co-transfected with CaM (Homo sapiens, UniProt O15554); experiment: Whole-cell patch-clamp of WT SK4 channel co-transfected with WT CaM or CaM mutants; format: cell-based
# T1 construct: expressed in transfected cells; host or cells: CHO cells
# Description: Constructs: For CHO cell transfection, the following were cloned: human SK1, rat SK2, human SK3, and rat calmodulin into the pcDNA3 vector, human SK4 into pEGFP-C1 vector, and PIP4,5-kinase into an IRES-dsRed plasmid. The mutations were introduced using the PCR-based QuikChange™ site-directed mutagenesis (Stratagene®) and were verified by full sequencing of the entire plasmid vector.
# Whole-cell patch-clamp recording: Voltage-clamp recordings were performed using the whole-cell configuration of the patch-clamp technique. Signals were amplified using an […] patch-clamp amplifier (Molecular Devices), sampled at 5 kHz and filtered at 2.4 kHz via a four pole Bessel low pass filter. Data were acquired using pClamp™ 10.5 software in conjunction with an Axon™ DigiData® 1440A interface (Molecular Devices). The patch pipettes were pulled from borosilicate glass (Harvard Apparatus) with a resistance of 3-5 megaohms (MΩ). The intracellular pipette solution contained 130 mM KCl, 5 mM EGTA, 10 mM HEPES, pH 7.3 (adjusted with KOH), and CaCl2 calculated for a final concentration of 1 μM free-Ca^2+, by MAXCHELATOR (WEBMAXC STANDARD) software, with sucrose added to adjust osmolarity to 290 mosM. The external solution (310 mosM) contained 140 mM NaCl, 4 mM KCl, 1.8 mM CaCl2, 1.2 mM MgCl2, 11 mM glucose, and 5.5 mM HEPES adjusted with NaOH to pH 7.3. CHO cells were held at −90 millivolt (mV) and SK4 K^+ currents were activated using a voltage ramp protocol from −100 mV to +60 mV for 150 milliseconds. Electrophysiological data analysis was performed using the Clampfit program (pClamp™ 10.5; Molecular Devices).
# To examine ex-vivo the interactions between BA6b9 and the simulated residues seen in FIG. 5B, residues that are in atomic proximity and are expected to interact with BA6b9 were mutated. Such mutated residues were, for example, R191 and H192 of linker S4-S5, M72 and M76 of the CaM linker as well as L19, E22, Y179, S181, A184, Q187 and R189, which are more distant from BA6b9.
# [2] = tested on: isolated guinea pig hearts; experiment: Langendorff perfused isolated guinea pig hearts; conditions: 10 μM
# Description: Animals: Adult male Sprague-Dawley rats (n=56, 200-250 grams) and Guinea pigs (n=19, 400-700 grams) obtained from Envigo Laboratories (Jerusalem, Israel) were bred and grown in Ben-Gurion University of the Negev, Israel. Experiments in rats and guinea pigs were approved by the institutional ethics committee of Ben-Gurion University of the Negev, Israel (Protocol No. IL-24-05-2020(D) and were carried out in strict accordance with the Guide for the Care and Use of Laboratory Animals of the National Institutes of Health. The animals were kept under standardized conditions: 12:12 light: dark cycles at 20-24° C. and 30-70% relative humidity.
# Perfused isolated hearts—Langendorff method: The isolated heart experiment setup was performed as described in Etzion et al., Am J Physiol Heart Circ Physiol (2008) 295, H1460-1469; and Mor et al., J Pharmacol Exp Ther (2013) 344, 59-67.]. Briefly, each animal was anesthetized with 2% isoflurane and an intraperitoneal (IP) injection of pentobarbital (60 mg/kg), followed by IP injection of Heparin (1000 U/kg). The heart was rapidly excised and placed into ice-cold Tyrode's buffer solution (consisted of 140 mM NaCl, 5.4 mM KCl, 0.5 mM MgCl2, 2.5 mM CaCl2, 0.39 mM NaH2PO4, 10 mM HEPES and 11 mM glucose, and titrated to pH 7.4 with NaOH). The aorta was cannulated and connected to a pre-heated (37° C.) and oxygenated perfusion system with Tyrode's solution while perfusion pressure was maintained at about 70 mmHg throughout the experiment. Prior to the experiment, the heart was left in Tyrode's solution to stabilize for 20 minutes for hemodynamic measurements, the left atrial appendage was excised, and a collapsed latex balloon was inserted into the left ventricle (LV) through the mitral valve. Once positioned, the balloon was filled with double distilled water reaching an end-diastolic pressure of 10-15 mmHg. Coronary perfusion pressure and LV pressure were recorded by a pressure amplifier (ETH-256C amplifier and B-100 probes, iWorx, NH, USA). Electrophysiological signals were recorded from the high right atrium (HRA) via a miniature quadripolar hook electrode (for simultaneous pacing and recording) and from the LV via a bipolar hook electrode. Electrical signals were filtered (1-2 kHz) and recorded by two voltage amplifiers (Model 3000, A-M Systems, Carlsberg, WA, USA). Signals were interfaced with a PC using an A/D converter (PCI-6024E, National Instruments, Austin TX, USA) and a custom-designed program developed with LabVIEW programing language (National Instruments, Austin, TX, USA) to control signal acquisition, data saving and off-line analysis. Measured physiological parameters during the experiment included perfusion flow (ml/minute) as a marker for coronary perfusion pressure, LV developed pressure, dP/dt±(representing the rate of rise of left ventricular pressure during isovolumetric contraction as a marker for LV contractility), heart rate, PR, and RR intervals. Tram-34 and BA6b9 were applied for a 20-minutes incubation period and physiological parameters were recorded.
# Effective refractory period measurements: Using both custom-made quadripolar electrode inserted on the HRA and two bipolar electrodes (recording and pacing) on the LV, allowed measurement of the effective refractory period (ERP) at the atrial level (atrial effective refractory period, AERP), atrioventricular level (AVERP), and ventricular level (VERP). For ERP measurement, a programmed S1S2 stimulation protocol was performed using double diastolic threshold intensity. The protocol consisted of ten S1-S2 intervals of 150 milliseconds (ms) followed by an S1-S2 interval that was reduced by 1 ms each time, until pacing capture failed three consecutive times. AERP, AVERP, and VERP were measured and recorded prior and after exposure to the used inhibitor, either Tram-34 or BA6b9.
smiles,measurement,setting,value
"CCCCCCCn1c(=O)oc2ccccc21 [BA6b9, 3-heptylbenzo[d]oxazol-2(3H)-one]",modulation of WT SK4 co-transfected with CaM mutant M72A (representative trace),[1]; 20 μM,not indicating modulation
same,inhibition at 20 µM,[1]; read-out: inhibition of WT SK4 co-transfected with CaM mutant M72A,0%
same,inhibition at 20 µM,[1]; read-out: inhibition of WT SK4 co-transfected with CaM mutant M76A,19%
same,inhibition at 20 µM,[1]; read-out: inhibition of WT SK4 co-transfected with WT CaM,47%
same,AERP (effect),[2],significantly prolonged
same,AVERP (effect),[2],significantly prolonged
same,PR interval (effect),[2],increasing PR interval
same,VERP (effect),[2],significantly prolonged
same,action potential activation current (atrial and ventricular pacing thresholds),[2],Neither Tram-34 nor BA6b9 affected
same,coronary flow (perfusion flow velocity),[2],no effect
same,heart rate (effect),[2],decreased heart rate
